Data from patent publication EP4813991A1 (iLeadBMS Co., Ltd., priority 2023, dated 2025).

How the values were obtained:
NCI-N87 = experiment: Gastric cancer cell proliferation inhibitory activity (Cell Counting Kit-8), NCI-N87; format: cell-based; settings: Homo sapiens, 72 hours, Cell Counting Kit-8, relative IC50
Experimental: (§1) Experiments were performed using six types of gastric cancer cell lines to measure the cell proliferation inhibitory ability of each Example compound. NCI-N87, SNU601, KATO-III, MKN1, and AGS cells were dispensed into a 96-well plate at 100 µL of cell suspension per well using RPMI1640 medium containing 10 % FBS and 1 % PS, followed by incubation in a cell incubator at 37 °C and 5 % CO2. HS746T cells were dispensed into a 96-well plate at 100 µL of cell suspension per well using DMEM medium containing 10 % FBS and 1 % PS, followed by incubation in a cell incubator at 37 °C and 5 % CO2. The next day, each Example compound dissolved and diluted in DMSO across 10 concentration ranges and a DMSO control group were treated on the cells for 72 hours. After completion of the compound treatment, 10 µL of Cell Counting Kit-8 (Dojindo) reagent was added to each well of the 96-well plate, followed by incubation for 2 hours. […] were measured after inserting the 96-well plate into an Envision plate reader […]. Relative IC50 values were calculated by fitting a dose-response curve using Graphpad PRISM software.
(§2) The gastric cancer cell proliferation inhibitory activities of the Example compounds measured by the method described above were evaluated according to the following criteria, and the results are presented in Table 20.

AsPC-1 = experiment: Pancreatic cancer cell proliferation inhibitory activity, AsPC-1; format: cell-based; settings: Homo sapiens, ASPC1; 72 hours, Cell Counting Kit-8, relative IC50
Experimental: (§3) Experiments were performed using three types of pancreatic cancer cell lines to measure the cell proliferation inhibitory ability of the compounds of the present invention. AsPC-1, MIA-PaCa2-Control, and Gemcitabine resistant-MIA-PaCa2 cells were dispensed into a 96-well plate at 100 uL of cell suspension per well using DMEM medium containing 10 % FBS and 1 % PS, followed by incubation in a cell incubator at 37 °C and 5 % CO2. The next day, the compound of Example 8 dissolved and diluted in DMSO across 10 concentration ranges and a DMSO control group were treated on the cells for 72 hours. After completion of the compound treatment, 10 µL of Cell Counting Kit-8 (Dojindo) reagent was added to each well of the 96-well plate, followed by incubation for 2 hours. […] were measured after inserting the 96-well plate into an Envision plate reader […]. Relative IC50 values were calculated by fitting a dose-response curve using Graphpad PRISM software.
(§4) The pancreatic cancer cell proliferation inhibitory activities of the Example compounds measured by the method described above were evaluated according to the following criteria, and the results are presented in Table 18.

AGS gastric cancer cells = experiment: Zebrafish xenograft gastric cancer model (AGS); format: in vivo
Experimental: (§5) Transgenic Tg(fli1:EGFP)y1 zebrafish embryos were cultured in E3 embryo medium with 0.2 mM 1-phenyl-2-thiourea (PTU) at 28 °C for 48 hours. HCC70 breast cancer cells were cultured using RPMI-1640 medium supplemented with 10 % FBS, and AGS gastric cancer cells were cultured using F-12K medium supplemented with 10 % FBS. Each cell was collected, labeled with Dil red fluorescent dye, and then subcutaneously transplanted into 2-day-old zebrafish embryos. After selecting embryos with tumors, they were classified into experimental groups (20 embryos per group), and each Example compound dissolved and diluted in DMSO across 2 to 3 concentration ranges, a DMSO control group, or a comparative compound were added, followed by incubation at 35.5 °C for 48 hours or 72 hours. In the breast cancer model, primary tumors were collected immediately after transplantation (Day 0) and after 48 hours (Day 2), and in the gastric cancer model, primary tumors were obtained immediately after transplantation (Day 0) and after 72 hours (Day 3). Images of the collected tumors were analyzed for reduction in tumor size compared to the DMSO control group using image software, and the number of disseminated cancer cells after 3 days was manually counted through the captured images, with the results shown in FIGs. 6, 7, and 8. […]

HS746T cells = experiment: Gastric cancer cell proliferation inhibitory activity (Cell Counting Kit-8), HS746T; format: cell-based; settings: Homo sapiens, 72 hours, Cell Counting Kit-8, relative IC50
Experimental: as §1, §2

SW620 = experiment: Colorectal cancer cell proliferation inhibitory activity, SW620; format: cell-based; settings: Homo sapiens, SW-620; 72 hours, Cell Counting Kit-8, relative IC50
Experimental: as §1, with “seven” for “six”, “colorectal” for “gastric”, “DLD-1, LoVo, SW620, SW480, HCT116, HCT15,” for “NCI-N87, SNU601, KATO-III, MKN1,”, “HT29” for “AGS”, “RPMI1640” for “RPMI1640 medium containing 10 % FBS and 1 % PS, followed by incubation in a cell incubator at 37 °C and 5 % CO2. HS746T cells were dispensed into a 96-well plate at 100 µL of cell suspension per well using DMEM”
(§6) The colorectal cancer cell proliferation inhibitory activities of the Example compounds measured by the method described above were evaluated according to the following criteria, and the results are presented in Table 19.

HT29 cells = experiment: Colorectal cancer cell proliferation inhibitory activity, HT29; format: cell-based; settings: Homo sapiens, HT-29; 72 hours, Cell Counting Kit-8, relative IC50
Experimental: as §1, with “seven” for “six”, “colorectal” for “gastric”, “DLD-1, LoVo, SW620, SW480, HCT116, HCT15,” for “NCI-N87, SNU601, KATO-III, MKN1,”, “HT29” for “AGS”, “RPMI1640” for “RPMI1640 medium containing 10 % FBS and 1 % PS, followed by incubation in a cell incubator at 37 °C and 5 % CO2. HS746T cells were dispensed into a 96-well plate at 100 µL of cell suspension per well using DMEM”
as §6

MIA-PaCa2-Control = experiment: Pancreatic cancer cell proliferation inhibitory activity, MIA-PaCa2-Control; format: cell-based; settings: 72 hours, Cell Counting Kit-8, relative IC50
Experimental: as §3, §4

HCT116 = experiment: Colorectal cancer cell proliferation inhibitory activity, HCT116; format: cell-based; settings: Homo sapiens, HCT-116; 72 hours, Cell Counting Kit-8, relative IC50
Experimental: as §1, with “seven” for “six”, “colorectal” for “gastric”, “DLD-1, LoVo, SW620, SW480, HCT116, HCT15,” for “NCI-N87, SNU601, KATO-III, MKN1,”, “HT29” for “AGS”, “RPMI1640” for “RPMI1640 medium containing 10 % FBS and 1 % PS, followed by incubation in a cell incubator at 37 °C and 5 % CO2. HS746T cells were dispensed into a 96-well plate at 100 µL of cell suspension per well using DMEM”
as §6

[1] = system: HCC70 breast cancer cells; experiment: Zebrafish xenograft breast cancer model (HCC70); format: in vivo; settings: 48 hours, compared to the vehicle, FIG. 6
Experimental: as §5

Row | IC50 (NCI-N87) [nM] | IC50 (AsPC-1) [nM] | IC50 (HS746T cells) [nM] | IC50 (SW620) [nM] | IC50 (HT29 cells) [nM] | IC50 (MIA-PaCa2-Control) [nM] | IC50 (HCT116) [nM] | Compound | number of metastatic gastric cancer cells (AGS gastric cancer cells; 0.1 µM, compared to 1 mM of 5-FU, FIG. 8) | reduction in tumor size (AGS gastric cancer cells; 72 hours, compared to the vehicle, FIG. 7) | reduction in tumor size [1]
1 | ≤ 200 | ≤ 200 | ≤ 200 | ≤ 200 | ≤ 200 | ≤ 200 | ≤ 200 | CN1CCN(c2cc(NCc3nc4ccc(F)c(F)c4[nH]3)c3ncc(C(F)(F)F)n3n2)CC1 [Example 8, N-((6,7-difluoro-1H-benzo[d]imidazol-2-yl)methyl)-6-(4-methylpiperazin-1-yl)-3-(trifluoromethyl)imidazo[1,2-b]pyridazin-8-amine] | significant reduction in the number of metastatic gastric cancer cells | dose-dependent reduction in tumor size | –
2 | – | – | – | – | – | – | – | N#CC1CN(c2cc(NCc3nc4cc(Cl)c(Cl)cc4[nH]3)c3ncc(C(F)(F)F)n3n2)C1 [Example 30, 1-(8-(((5,6-dichloro-1H-benzol[d]imidazol-2-yl)methyl)amino)-3-(trifluoromethyl)imidazo[1,2-b]pyridazin-6-yl)azetidine-3-carbonitrile] | – | – | dose-dependent reduction in tumor size
